Laboratory results reported in patent US10139410B2, “Protein-protein interaction as biomarkers” (H. LEE MOFFITT CANCER CENTER AND RESEARCH INSTITUTE, INC., priority 2011, dated 2018).

Assays:
[1] = test system: EGFR binding of Grb2, Mig6, Sts1; assay: Affinity purification mass spectrometry (AP-MS) of EGFR interactions; assay type: cell-based, human; details: cells treated with erlotinib; data not shown
Source text: The present inventors have initiated a system wide and global analysis of the PPI driven by hyperactivated epidermal growth factor receptor (EGFR) resulting from somatic mutation in non-small cell lung cancer (NSCLC) (17-19). The inventors' approach has been to combine (i) affinity purification—mass spectrometry (AP-MS) and (ii) phosphotyrosine proteomics. The inventors use cell models that harbor mutant EGFR proteins and are highly sensitive to EGFR TKI. As the network of EGFR is highly dependent on cell context, this approach offers the best chance of recovering pertinent proteins and mechanisms, a potential flaw in using cells other than lung cancer cells driven by mutant EGFR. Tagged versions of EGFR are initially used to identify interactions and second round of AP-MS is performed to more fully construct the network (20, 21). The inventors simultaneously performed tyrosine phosphoproteomics—tyrosine phosphorylated (pTyr) peptides are enriched using an anti-phosphotyrosine antibody and then identified and quantified on an Orbitrap mass spectrometer using published methods (9). […]
EGFR inhibitors are predicted to disrupt signaling complexes on the EGFR protein. […] Changes in EGFR PPI will be determined using PLA on these tumor samples. Measurements of EGFR PPI using PLA will be analyzed from the pre-treatment sample and again on the post-treatment sample.

phosphor-EGFRY1068 = assay: PLA for phosphorylated EGFR in cell lines (single antibody to phospho-EGFR Y1068); assay type: cell-based, human; details: PC9 cells, 3 hours of treatment
Description: 9. […] Record start time • b. Incubation time should be 16-18 h
11. […] Ensure complete coverage of tissue area.

EGFR-GRB2 interactions = test system: EGFR-GRB2 interactions; design: species or system nude mice; details: mouse, in vivo
Description: 5. […] Record start time • b. Incubation time should be 16-18 h

EGFR = assay type: cell-based, human
lung cancer cell lines = assay: Sensitivity of lung cancer cell lines to EGFR TKI; assay type: cell-based, human
EGFR-GRB2 = assay type: in vivo, mice; details: H1650 (EGFR mutant) or H322 (EGFR wildtype) xenografts, with or without erlotinib, 18 days
Description: (§1) Tumor xenografts were established in mice with either H1650 (EGFR mutant) or H322 (EGFR wildtype), treated with or without erlotinib and allowed to grow for 18 days. Formalin-fixed, paraffin-embedded tumor tissue was analyzed by PLA for the interaction of EGFR-GRB2 (left) and EGFR-SHC1 (right). Nuclei are shown in blue, PLA signal is red and cytokeratin is green. For clarity, identical images are shown with and without cytokeratin staining for each tumor.
(§2) Tumor tissues from subcutaneous mouse models of lung cancer will be used. […] Mice have been selected for these experiments since they are most suitable for xenograft and […] studies of lung cancer, are readily available and not endangered, and can be safely maintained in the laboratory animal vivarium. CD-1 nu/nu mice mice will be purchased from approved vendors and housed in institutional animal facilities according to protocols set out by the American Association for Accreditation of Laboratory Animal Care. The inventor currently has active IACUC protocol for establishing subcutaneous tumor xenografts in mice. Both male and female mice of approximately six weeks of age will be used. Mice will be anesthetized in an induction chamber containing 3% isoflurane and 97% oxygen.

EGFR-SHC1 = assay type: in vivo, mice; details: H1650 (EGFR mutant) or H322 (EGFR wildtype) xenografts, with or without erlotinib, 18 days
Description: as §1, §2

In the case of `C#Cc1cccc(Nc2ncnc3cc(OCCOC)c(OCCOC)cc23)c1` [erlotinib], the “EGFR binding partners by mass spectrometry” value [1] is reported as “no longer bound Grb2, Mig6 or Sts1”, the “phosphorylation of EGFR by PLA (pEGFR Y1068), confirmed by immunoblot” value (phosphor-EGFRY1068) is reported as “abolishes” and the “EGFR-GRB2 PLA signal in tumor” value (EGFR-GRB2 interactions) is reported as “considerably reduced”. For the same compound, the “proteins in complex with EGFR (PLA)” value (EGFR-GRB2 interactions) was “reductions in proteins in complex with EGFR”, the EGFR tyrosine phosphorylation (EGFR) was “inhibits” and the “sensitivity to EGFR TKI (erlotinib)” value (lung cancer cell lines; A549, H23 and H460 cells) was “resistant”. The erlotinib sensitivity (lung cancer cell lines; H322 and H1648 cells) was “some degree of erlotinib sensitivity”, the “sensitivity to EGFR TKI (erlotinib)” value (lung cancer cell lines; H1648, H322, H358 and H292 cells, wildtype EGFR) was “some degree of sensitivity” and the “EGFR-GRB2 PLA signal in tumor tissue” value (EGFR-GRB2) was “markedly reduced”. The “EGFR-SHC1 PLA signal in tumor tissue” value (EGFR-SHC1) was “markedly reduced”.
